Test results taken from patent publication US11958868B2, “Methods of using metal complexes to promote wound healing” (University of Macau, priority 2022, dated 2024).

Columns and labels:
[1] = Stability in solution (1H NMR, UV/Vis); type: physicochemical; conditions: 298 K
From the text: Based on the structure of complex 1, a focused library of 14 cyclometalated Rh(III) and Ir(III) complexes containing different CAN or NAN donor ligands were designed and synthesized (1a-1n) (FIG. 1c). This library was enriched in the brpy CAN and dmeophen N^N ligands that were identified in the first round of screening to be favorable substructures for potency.

[2] = tested on: HIF-1α levels in A498 (VHL-null) cells; experiment: HIF-1α accumulation in VHL-null A498 cells; type: cell-based; conditions: 1a 3 μM, VH298 100 μM, 2 h
Protocol: FIG. 3 depicts the effect of complex 1a on HIF-1α target gene products in cellulo. (A) Effect of complex 1a on specific proteins (GLUT1, VEGF, and EPO) mediated by HIF-1α in HEK293 cells. HEK293 cells were treated with 1a for 2 h. Cell lysis were collected and analyzed by the Western blotting. (B) Complex 1a has no effect on HIF-1α accumulation in a VHL null cancer cell line. A498 (VHL-null), or HEK293 cells were treated with 1% DMSO, 1a (3 μM), VH298 (100 μM), and FG-4592 (100 μM) for 2 h before lysis. (C) Effect of complex 1a on EPO, GLUT1, and VEGF levels in HEK293 cells with or without HIF-1α knockdown. Left: The expression levels of EPO, GLUT1, and VEGF in HEK293 cells with or without knockdown HIF-1α in the presence or absence of 1a. Right: Densitometry analysis of EPO, GLUT1, and VEGF levels on the Western blot. HIF-1α siRNA [sense, 5′-[…]-3′ (SEQ ID NO:1), antisense, 5′-[…]-3′ (SEQ ID NO:2)]. Negative control (NC) siRNA [sense, 5′-[…]-3′ (SEQ ID NO:3), antisense, 5′-[…]-3′ (SEQ ID NO:4)]. Data are expressed as means±SD (n=3 independent experiments), P values were calculated using a two-sided t-test. #P<0.05, P<0.01 HIF-1α siRNA vs. NC siRNA, *P<0.05, **P<0.01 1a vs. vehicle/DMSO group, respectively. […]

PHD2 = target: T1, PHD2 (Homo sapiens, UniProt Q9GZT9); experiment: Cellular thermal shift assay (CETSA) in HEK293 cell lysates, PHD2; type: binding; conditions: 3 μM
T1 construct: detected by Western blotting using either VHL or PHD2 antibodies; endogenous in cells; host or cells: HEK293 cell lysate
Protocol: HEK293 cells were treated with vehicle DMSO (1% for 2 h), 1a (0.3, 1, 3, 6 and 9 μM for 2 h), VH298 (100 μM for 2 h), MG132 (20 μM for 3 h), or FG-4592 (100 μM for 2 h) before lysis. Cell lysates were collected and incubated with VHL antibody overnight at 4° C. The proteins were immunoprecipitated using agarose beads. The levels of hydroxy-HIF-1α co-precipitated with VHL were detected using a hydroxy-HIF-1α antibody, and then visualized using ECL Western Blotting Detection Reagent (GE Healthcare). (B) Cellular thermal shift assays to monitor cellular target engagement of VHL and HIF-1α. HEK293 cell lysates were treated with 1a (3 μM) at room temperature for 30 min and then heated at different temperature ranging from 48° C. to 68° C. for 5 min. The protein samples were collected and detected by Western blotting using either VHL or PHD2 antibodies. (C) Fluorescence-based protein thermal shift assay of VBC in the presence or absence of VH298 (100 μM) and complex 1a (100 μM). […] Data are expressed as means±SD (n=3 independent experiments for figures a and b, samples for figures c and e), P values were calculated using a two-sided t-test. *P<0.05, **P<0.01 vs. DMSO group.
After incubating HEK293 cell lysates with complex 1a followed by heating to set temperatures, VHL and PHD2 levels in the soluble fraction were quantitated by Western blotting. […]

[3] = tested on: EPO, GLUT1 and VEGF in HIF-1α knockdown HEK293 cells; experiment: HIF-1α knockdown assay in HEK293 cells; type: cell-based, Human; conditions: HIF-1α siRNA
Protocol: FIG. 3 depicts the effect of complex 1a on HIF-1α target gene products in cellulo. (A) Effect of complex 1a on specific proteins (GLUT1, VEGF, and EPO) mediated by HIF-1α in HEK293 cells. HEK293 cells were treated with 1a for 2 h. Cell lysis were collected and analyzed by the Western blotting. (B) Complex 1a has no effect on HIF-1α accumulation in a VHL null cancer cell line. A498 (VHL-null), or HEK293 cells were treated with 1% DMSO, 1a (3 μM), VH298 (100 μM), and FG-4592 (100 μM) for 2 h before lysis. (C) Effect of complex 1a on EPO, GLUT1, and VEGF levels in HEK293 cells with or without HIF-1α knockdown. Left: The expression levels of EPO, GLUT1, and VEGF in HEK293 cells with or without knockdown HIF-1α in the presence or absence of 1a. Right: Densitometry analysis of EPO, GLUT1, and VEGF levels on the Western blot. HIF-1α siRNA [sense, 5′-[…]-3′ (SEQ ID NO:1), antisense, 5′-[…]-3′ (SEQ ID NO:2)]. Negative control (NC) siRNA [sense, 5′-[…]-3′ (SEQ ID NO:3), antisense, 5′-[…]-3′ (SEQ ID NO:4)]. Data are expressed as means±SD (n=3 independent experiments), P values were calculated using a two-sided t-test. #P<0.05, P<0.01 HIF-1α siRNA vs. NC siRNA, *P<0.05, **P<0.01 1a vs. vehicle/DMSO group, respectively.
A knockdown assay was performed to further verify the on-target effect of complex 1a. EPO, GLUT1, and VEGF are target genes regulated by HIF-1α. […]

T1 sequence (Q9GZT9 whole entry): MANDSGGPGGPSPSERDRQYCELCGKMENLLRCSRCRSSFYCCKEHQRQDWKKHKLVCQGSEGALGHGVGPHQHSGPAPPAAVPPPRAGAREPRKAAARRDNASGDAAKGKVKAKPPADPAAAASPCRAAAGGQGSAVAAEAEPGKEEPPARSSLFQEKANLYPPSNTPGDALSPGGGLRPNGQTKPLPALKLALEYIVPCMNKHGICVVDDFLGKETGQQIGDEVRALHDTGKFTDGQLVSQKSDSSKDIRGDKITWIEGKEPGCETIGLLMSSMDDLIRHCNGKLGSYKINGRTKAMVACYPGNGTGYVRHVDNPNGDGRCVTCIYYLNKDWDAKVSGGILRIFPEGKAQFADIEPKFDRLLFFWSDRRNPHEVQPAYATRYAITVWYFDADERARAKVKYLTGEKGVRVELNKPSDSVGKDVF

COc1cc[n+]2c3c1ccc1c(OC)cc[n+](c13)[Ir-3]213([c]2ccccc2-c2cccc[n+]21)[c]1ccccc1-c1cccc[n+]13.F[P-](F)(F)(F)(F)F [1a]
Stability in [d6]DMSO/D2O (9:1) solution ([1]; 1H NMR spectroscopy): remarkable stability in a [d6]DMSO/D2O (9:1) solution for at least seven days | Stability in acetonitrile/H2O (9:1) solution ([1]; UV/Vis spectroscopy): for at least seven days | HIF-1α levels in A498 cells [2]: no increase in HIF-1α levels | Thermal stabilization of PHD2 (CETSA) (PHD2): no appreciable effect on the thermal stabilization of PHD2 | Accumulation of EPO, GLUT1 and VEGF in HIF-1α knockdown cells compared with normal cells [3]: less able to increase the accumulation of EPO, GLUT1, and VEGF in HIF-1α knockdown cells
